Assays:
[1] = compound: NC(=O)CCCCC1CCSS1 [lipoamide]; experiment: thermal stability z-score vs DMSO; higher = more thermally stabilized by treatment; conditions: HeLa, lipoamide concentration 100 µM
Procedure: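 Cellular thermal proteome profiling in HeLa cells. Cells were treated with 100 µM lipoamide for 1 h, with or without 1 mM arsenate for a further 1 h, then heated to ten temperatures (37-66.3 °C), and soluble protein was quantified by TMT mass spectrometry relative to 0.1% DMSO controls. The thermal stability score (sum of log2 fold changes minus the abundance score) was transformed to a z-score; mean of n = 3 experiments.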

[2] = compound: O=[As]([O-])(O)O.[K+] [potassium arsenate]; experiment: as above; conditions: HeLa; arsenate concentration 1 mM
Procedure: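 Cellular thermal proteome profiling in HeLa cells treated with 1 mM arsenate for 1 h (DMSO pretreatment), heated to ten temperatures (37-66.3 °C). Soluble protein was quantified by TMT mass spectrometry relative to DMSO controls; the thermal stability score was transformed to a z-score; mean of n = 3 experiments.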

[3] = arsenate co-treatment: 1 mM arsenate 1 h
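Also: each temperature applied for 3 min, abundance score taken as mean log2 fold change at the two lowest temperatures, z-score obtained by mean subtraction and division by SD.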

UniProt P11279, sequence (P11279 whole entry): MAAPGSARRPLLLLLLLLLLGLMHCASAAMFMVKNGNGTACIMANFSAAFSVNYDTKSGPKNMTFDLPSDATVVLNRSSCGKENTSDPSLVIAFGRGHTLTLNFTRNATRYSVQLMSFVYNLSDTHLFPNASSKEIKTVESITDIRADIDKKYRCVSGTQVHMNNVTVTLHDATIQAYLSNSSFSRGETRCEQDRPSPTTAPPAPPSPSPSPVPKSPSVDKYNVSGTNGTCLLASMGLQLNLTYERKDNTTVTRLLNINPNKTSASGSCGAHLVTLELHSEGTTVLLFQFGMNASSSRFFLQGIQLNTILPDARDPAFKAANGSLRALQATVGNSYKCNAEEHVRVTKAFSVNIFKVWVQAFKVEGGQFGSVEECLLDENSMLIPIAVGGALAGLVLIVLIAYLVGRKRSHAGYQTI
UniProt Q16719, sequence (Q16719 whole entry): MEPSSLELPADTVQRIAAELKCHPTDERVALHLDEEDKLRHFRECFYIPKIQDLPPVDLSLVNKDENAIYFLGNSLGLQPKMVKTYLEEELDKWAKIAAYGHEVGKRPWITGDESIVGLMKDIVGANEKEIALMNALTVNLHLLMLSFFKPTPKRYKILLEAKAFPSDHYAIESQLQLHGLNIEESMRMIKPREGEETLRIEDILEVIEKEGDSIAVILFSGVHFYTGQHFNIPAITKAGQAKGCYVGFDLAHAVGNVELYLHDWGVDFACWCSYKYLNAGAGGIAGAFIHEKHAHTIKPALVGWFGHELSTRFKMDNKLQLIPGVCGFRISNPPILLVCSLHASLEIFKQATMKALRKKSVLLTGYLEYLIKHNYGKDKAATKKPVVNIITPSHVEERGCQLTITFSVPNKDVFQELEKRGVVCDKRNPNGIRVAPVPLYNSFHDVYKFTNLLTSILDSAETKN
UniProt P50748, sequence (P50748 whole entry): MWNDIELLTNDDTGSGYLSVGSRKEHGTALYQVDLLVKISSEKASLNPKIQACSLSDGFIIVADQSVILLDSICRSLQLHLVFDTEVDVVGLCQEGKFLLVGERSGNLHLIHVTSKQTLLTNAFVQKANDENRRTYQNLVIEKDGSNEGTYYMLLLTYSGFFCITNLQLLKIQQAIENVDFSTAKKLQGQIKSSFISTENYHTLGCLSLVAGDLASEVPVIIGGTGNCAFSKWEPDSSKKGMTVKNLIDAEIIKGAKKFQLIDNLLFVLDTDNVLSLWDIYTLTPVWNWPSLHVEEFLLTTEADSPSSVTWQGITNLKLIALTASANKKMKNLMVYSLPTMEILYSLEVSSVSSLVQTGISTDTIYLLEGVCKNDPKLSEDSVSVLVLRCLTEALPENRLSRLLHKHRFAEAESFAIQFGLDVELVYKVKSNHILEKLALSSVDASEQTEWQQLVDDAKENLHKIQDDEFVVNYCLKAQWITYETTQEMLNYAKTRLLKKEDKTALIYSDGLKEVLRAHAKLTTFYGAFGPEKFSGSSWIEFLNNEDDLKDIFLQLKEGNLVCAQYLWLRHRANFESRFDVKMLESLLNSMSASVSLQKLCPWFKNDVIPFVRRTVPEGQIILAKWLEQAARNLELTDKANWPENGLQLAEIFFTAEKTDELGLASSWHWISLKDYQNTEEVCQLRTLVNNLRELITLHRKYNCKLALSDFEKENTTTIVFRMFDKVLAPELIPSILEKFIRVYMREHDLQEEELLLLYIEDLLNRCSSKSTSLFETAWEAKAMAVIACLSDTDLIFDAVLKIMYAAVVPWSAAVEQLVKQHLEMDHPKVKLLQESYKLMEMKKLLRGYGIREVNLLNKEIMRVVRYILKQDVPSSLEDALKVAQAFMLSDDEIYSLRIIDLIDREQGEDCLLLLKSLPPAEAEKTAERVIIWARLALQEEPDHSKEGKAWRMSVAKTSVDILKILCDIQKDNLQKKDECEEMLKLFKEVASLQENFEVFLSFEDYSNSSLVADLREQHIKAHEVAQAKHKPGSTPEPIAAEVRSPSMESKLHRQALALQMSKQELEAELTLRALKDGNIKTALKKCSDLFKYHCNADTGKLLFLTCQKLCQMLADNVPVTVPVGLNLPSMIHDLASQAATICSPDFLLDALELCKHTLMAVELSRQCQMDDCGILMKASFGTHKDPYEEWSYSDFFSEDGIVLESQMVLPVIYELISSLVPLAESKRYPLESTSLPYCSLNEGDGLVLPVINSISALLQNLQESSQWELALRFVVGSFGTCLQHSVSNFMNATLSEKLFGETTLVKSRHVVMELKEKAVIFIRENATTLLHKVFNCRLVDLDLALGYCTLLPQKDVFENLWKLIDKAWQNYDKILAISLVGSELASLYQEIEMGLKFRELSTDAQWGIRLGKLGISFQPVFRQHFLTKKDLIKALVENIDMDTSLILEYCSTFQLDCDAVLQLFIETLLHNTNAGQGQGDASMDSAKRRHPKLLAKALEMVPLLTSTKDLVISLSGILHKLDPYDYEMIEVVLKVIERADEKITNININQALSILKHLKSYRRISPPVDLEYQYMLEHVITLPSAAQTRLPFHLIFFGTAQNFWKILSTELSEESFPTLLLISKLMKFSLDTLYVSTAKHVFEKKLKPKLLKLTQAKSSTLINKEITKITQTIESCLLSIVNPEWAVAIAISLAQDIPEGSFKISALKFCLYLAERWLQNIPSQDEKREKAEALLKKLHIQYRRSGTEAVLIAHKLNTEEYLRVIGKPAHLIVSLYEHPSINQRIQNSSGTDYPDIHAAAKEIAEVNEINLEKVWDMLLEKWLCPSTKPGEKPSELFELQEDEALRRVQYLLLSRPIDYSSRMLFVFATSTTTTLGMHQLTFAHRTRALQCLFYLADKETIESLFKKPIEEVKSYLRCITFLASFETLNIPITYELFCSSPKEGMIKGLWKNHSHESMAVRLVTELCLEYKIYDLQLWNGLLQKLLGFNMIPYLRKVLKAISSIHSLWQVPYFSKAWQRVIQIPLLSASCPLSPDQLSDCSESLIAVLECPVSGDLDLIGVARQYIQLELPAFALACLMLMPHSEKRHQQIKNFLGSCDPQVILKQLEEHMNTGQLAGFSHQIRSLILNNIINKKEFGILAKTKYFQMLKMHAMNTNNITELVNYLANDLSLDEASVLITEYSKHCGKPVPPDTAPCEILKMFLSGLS
UniProt P83111, sequence (P83111 whole entry): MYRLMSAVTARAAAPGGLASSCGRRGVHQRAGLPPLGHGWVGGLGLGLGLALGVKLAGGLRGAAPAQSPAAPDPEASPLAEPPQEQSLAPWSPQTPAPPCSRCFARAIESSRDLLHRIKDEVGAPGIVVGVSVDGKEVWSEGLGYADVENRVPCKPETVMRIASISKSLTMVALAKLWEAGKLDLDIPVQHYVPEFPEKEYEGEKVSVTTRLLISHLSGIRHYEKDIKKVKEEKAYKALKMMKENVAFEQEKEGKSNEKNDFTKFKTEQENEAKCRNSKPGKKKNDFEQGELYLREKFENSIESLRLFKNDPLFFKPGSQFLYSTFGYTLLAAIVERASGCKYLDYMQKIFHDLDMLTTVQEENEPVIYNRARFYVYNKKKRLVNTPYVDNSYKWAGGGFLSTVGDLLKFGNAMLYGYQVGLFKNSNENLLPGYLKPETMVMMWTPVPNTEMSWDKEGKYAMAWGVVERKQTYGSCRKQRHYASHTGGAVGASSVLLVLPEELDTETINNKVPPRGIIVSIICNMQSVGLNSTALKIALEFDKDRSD
UniProt Q9BQD3, sequence (Q9BQD3 whole entry): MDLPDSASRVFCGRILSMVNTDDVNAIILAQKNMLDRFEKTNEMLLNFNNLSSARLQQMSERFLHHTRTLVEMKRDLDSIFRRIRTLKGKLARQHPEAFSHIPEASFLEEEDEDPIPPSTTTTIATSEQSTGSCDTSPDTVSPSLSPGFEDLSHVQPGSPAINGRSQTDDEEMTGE
UniProt Q13751, sequence (Q13751 whole entry): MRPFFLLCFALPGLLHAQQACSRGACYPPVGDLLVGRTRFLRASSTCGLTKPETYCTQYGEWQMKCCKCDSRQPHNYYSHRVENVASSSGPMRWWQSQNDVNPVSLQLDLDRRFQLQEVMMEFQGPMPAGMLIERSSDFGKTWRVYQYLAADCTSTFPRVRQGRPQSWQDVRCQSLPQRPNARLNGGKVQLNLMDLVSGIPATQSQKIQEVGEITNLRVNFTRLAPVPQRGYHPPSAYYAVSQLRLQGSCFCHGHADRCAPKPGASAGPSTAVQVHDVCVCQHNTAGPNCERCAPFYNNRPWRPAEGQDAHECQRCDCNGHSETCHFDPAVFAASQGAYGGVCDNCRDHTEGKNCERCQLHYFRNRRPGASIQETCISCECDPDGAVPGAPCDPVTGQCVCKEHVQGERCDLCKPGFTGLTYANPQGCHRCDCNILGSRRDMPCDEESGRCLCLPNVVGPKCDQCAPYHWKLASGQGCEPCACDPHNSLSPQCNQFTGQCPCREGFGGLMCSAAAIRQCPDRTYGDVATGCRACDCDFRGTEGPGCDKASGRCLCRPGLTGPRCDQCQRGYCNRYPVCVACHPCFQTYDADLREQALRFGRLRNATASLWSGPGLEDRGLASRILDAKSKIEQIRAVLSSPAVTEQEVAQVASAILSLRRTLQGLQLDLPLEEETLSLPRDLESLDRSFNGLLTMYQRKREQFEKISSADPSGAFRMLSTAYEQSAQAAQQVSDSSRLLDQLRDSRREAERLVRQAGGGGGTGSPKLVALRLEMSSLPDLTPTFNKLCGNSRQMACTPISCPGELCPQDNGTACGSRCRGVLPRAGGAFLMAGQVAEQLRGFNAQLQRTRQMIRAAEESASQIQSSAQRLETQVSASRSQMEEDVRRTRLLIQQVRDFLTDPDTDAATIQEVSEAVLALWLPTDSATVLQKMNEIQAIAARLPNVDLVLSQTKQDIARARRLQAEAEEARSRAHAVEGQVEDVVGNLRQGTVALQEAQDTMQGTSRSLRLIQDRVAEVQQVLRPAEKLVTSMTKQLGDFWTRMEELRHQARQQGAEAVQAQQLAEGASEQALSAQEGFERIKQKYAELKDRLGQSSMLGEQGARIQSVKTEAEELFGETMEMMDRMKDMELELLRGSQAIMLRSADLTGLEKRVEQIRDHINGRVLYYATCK

| Target | thermal stability z-score [1, 3] | thermal stability z-score ([1]; arsenate co-treatment: none) | thermal stability z-score [2] |
| --- | --- | --- | --- |
| KNOP1 (UniProt Q1ED39) | 0.735 | -0.755 | 0.831 |
| KNSTRN (UniProt Q9Y448) | -0.729 | -0.171 | 1.36 |
| KNTC1 (UniProt P50748) | -0.59 | -0.253 | 0.572 |
| KPNA1 (UniProt P52294) | -0.0607 | -0.0226 | 0.239 |
| KPNA2 (UniProt P52292) | 0.22 | -0.118 | -0.353 |
| KPNA3 (UniProt O00505) | -1.01 | -0.146 | -0.288 |
| KPNA4 (UniProt O00629) | 0.791 | 0.48 | 0.399 |
| KPNA6 (UniProt O60684) | -0.328 | -0.314 | 0.446 |
| KPNB1 (UniProt Q14974) | -0.211 | 0.374 | 0.0471 |
| KRAS (UniProt P01116) | 0.168 | 0.186 | 0.184 |
| KRI1 (UniProt Q8N9T8) | 0.198 | -0.118 | -0.376 |
| KRR1 (UniProt Q13601) | -0.00732 | 0.0711 | -0.512 |
| KTI12 (UniProt Q96EK9) | 0.014 | -0.222 | -0.224 |
| KTN1 (UniProt Q86UP2) | 0.265 | 0.505 | 0.294 |
| KXD1 (UniProt Q9BQD3) | 0.543 | 0.711 | 0.28 |
| KYAT3 (UniProt Q6YP21) | -0.0731 | 0.185 | -0.182 |
| KYNU (UniProt Q16719) | 0.77 | 0.403 | 0.0266 |
| L1CAM (UniProt P32004) | 0.0694 | -0.375 | -0.0837 |
| L2HGDH (UniProt Q9H9P8) | -0.736 | -0.362 | 0.523 |
| LACE1 (UniProt Q8WV93) | 0.0464 | 0.0601 | -0.0299 |
| LACTB2 (UniProt Q53H82) | -0.112 | -0.0753 | -0.335 |
| LACTB (UniProt P83111) | -0.437 | -0.129 | -0.604 |
| LAMA1 (UniProt P25391) | -2 | -1.82 | 1.13 |
| LAMA3 (UniProt Q16787) | 0.341 | -0.204 | 0.34 |
| LAMA5 (UniProt O15230) | -1.26 | -0.93 | 0.045 |
| LAMB1 (UniProt P07942) | -3.22 | -2.66 | 0.724 |
| LAMB2 (UniProt P55268) | -1.69 | -1.75 | -0.248 |
| LAMB3 (UniProt Q13751) | -1.92 | -1.59 | 0.108 |
| LAMC1 (UniProt P11047) | -2.97 | -2.6 | 1.15 |
| LAMP1 (UniProt P11279) | 0.396 | 0.531 | -0.0209 |

Reference: the supplement of paper PMC12463676, “Small-molecule dissolution of stress granules by redox modulation benefits ALS models” (Nature Chemical Biology, 2025)
